Patent US11566007B2, “Ras inhibitors” (Revolution Medicines, Inc., priority 2019, dated 2023)
“And” between values parts separate entries of the source, which are not always exact repeats. Identical values can stand only once. Like-named read-outs stand apart in the source and are kept apart here.

What was measured:
[1] = biological target: KRAS WT (Homo sapiens (Human), UniProt P01116+P62937); test: Ras-Raf (BRAF RBD) disruption / FRET / MOA assay, KRAS WT; type: biochemical; conditions: read-out: IC50* KRAS WT FRET data
In short: (§1)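 A 10-point, 3-fold dilution series topping at 30 μM final was incubated 3 h at 25° C with the Ras/cyclophilin A/BRAF RBD mixture.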

[2] = biological target: K-Ras G13C (Homo sapiens (Human), UniProt P01116+P62937, G13C); test: Ras-Raf (BRAF RBD) disruption / FRET / MOA assay, KRAS G13C; type: biochemical; conditions: KRAS G13C; Ras-Raf disruption/FRET/MOA assay; read-out: IC50* KRAS G13C FRET data
In short: as §1

[3] = biological target: K-Ras G12C (Homo sapiens (Human), UniProt P01116+P62937, G12C); test: Ras-Raf (BRAF RBD) disruption / FRET / MOA assay, KRAS G12C; type: biochemical; conditions: KRAS G12C; Ras-Raf disruption/FRET/MOA assay; read-out: IC50* KRAS G12C FRET data
In short: as §1

[4] = biological target: KRAS G12S (Homo sapiens (Human), UniProt P01116+P62937, G12S); test: Ras-Raf (BRAF RBD) disruption / FRET / MOA assay, KRAS G12S; type: biochemical; conditions: Ras-Raf disruption/FRET/MOA assay; class symbols; read-out: KRAS G12S FRET data IC50
In short: as §1

[5] = biological target: KRAS G13D (Homo sapiens (Human), UniProt P01116+P62937, G13D); test: Ras-Raf (BRAF RBD) disruption / FRET / MOA assay, KRAS G13D; type: biochemical; conditions: read-out: IC50* KRAS G13D FRET data
In short: as §1

[6] = system: NCI-H358 (K-Ras G12C); test: CellTiter-Glo cell viability assay, NCI-H358; type: cell-based, human; conditions: Homo sapiens, NCI-H358, 120 h, NCI-H358, 5-day treatment; class symbols; read-out: Additional H358 Cell Viability assay data (K-Ras G12C, IC50)
In short: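 Cells seeded, compound added directly, 5-day exposure. Plates to RT ~30 min, CellTiter-Glo luminescence read. Normalized to DMSO avg (x100); 4-parameter logistic fit.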

[7] = biological target: KRAS G12V (Homo sapiens (Human), UniProt P01116+P62937, G12V); test: Ras-Raf (BRAF RBD) disruption / FRET / MOA assay, KRAS G12V; type: biochemical; conditions: read-out: IC50* KRAS G12V FRET data
In short: as §1

[8] = biological target: KRAS G12D (Homo sapiens (Human), UniProt P01116+P62937, G12D); test: Ras-Raf (BRAF RBD) disruption / FRET / MOA assay, KRAS G12D; type: biochemical; conditions: Ras-Raf disruption/FRET/MOA assay; class symbols; read-out: KRAS G12D FRET data IC50
In short: as §1

[9] = biological target: NRAS G12C (Homo sapiens (Human), UniProt P01111+P62937, G12C); test: Ras-Raf (BRAF RBD) disruption / FRET / MOA assay, NRAS G12C; type: biochemical; conditions: read-out: IC50* NRAS G12C FRET data
In short: as §1

[10] = system: NCI-H358 cells (K-Ras G12C); test: Potency assay: pERK in NCI-H358 cells; type: cell-based, human; conditions: H358 KRAS G12C, read-out: pERK EC50
In short: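 pERK decrease read by AlphaLISA SureFire p-ERK1/2 or In-Cell Western after 4 h compound exposure at 37 °C, 5% CO2.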

Sequence of K-Ras G13C (P01116-2 other isoform, or with tags, fused parts or gaps G13C): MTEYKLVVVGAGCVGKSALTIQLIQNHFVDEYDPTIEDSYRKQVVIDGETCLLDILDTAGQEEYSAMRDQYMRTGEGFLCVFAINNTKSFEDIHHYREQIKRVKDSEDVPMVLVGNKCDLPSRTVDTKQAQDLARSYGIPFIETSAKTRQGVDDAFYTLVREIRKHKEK
Sequence of K-Ras G13C (P62937 whole entry): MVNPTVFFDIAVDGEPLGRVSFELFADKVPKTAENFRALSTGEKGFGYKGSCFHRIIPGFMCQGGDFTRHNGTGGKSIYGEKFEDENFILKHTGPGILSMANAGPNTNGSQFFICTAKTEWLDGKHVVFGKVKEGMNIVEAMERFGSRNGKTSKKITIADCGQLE
Sequence of KRAS G12S (P01116-2 other isoform, or with tags, fused parts or gaps G12S): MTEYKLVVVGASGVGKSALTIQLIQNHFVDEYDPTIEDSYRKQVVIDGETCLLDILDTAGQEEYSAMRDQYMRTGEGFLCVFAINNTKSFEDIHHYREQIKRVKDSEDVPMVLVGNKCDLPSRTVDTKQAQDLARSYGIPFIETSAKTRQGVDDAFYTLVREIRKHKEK
Sequence of KRAS G12S (P62937 whole entry): as the sequence (P62937 whole entry) above
Sequence of KRAS G13D (P01116-2 other isoform, or with tags, fused parts or gaps G13D): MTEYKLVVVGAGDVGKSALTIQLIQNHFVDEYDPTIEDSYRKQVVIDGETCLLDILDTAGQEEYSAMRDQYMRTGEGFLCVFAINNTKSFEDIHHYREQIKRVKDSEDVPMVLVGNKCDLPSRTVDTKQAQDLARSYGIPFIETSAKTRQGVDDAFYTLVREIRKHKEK
Sequence of KRAS G13D (P62937 whole entry): as the sequence (P62937 whole entry) above
Sequence of KRAS WT (P01116-2 other isoform, or with tags, fused parts or gaps): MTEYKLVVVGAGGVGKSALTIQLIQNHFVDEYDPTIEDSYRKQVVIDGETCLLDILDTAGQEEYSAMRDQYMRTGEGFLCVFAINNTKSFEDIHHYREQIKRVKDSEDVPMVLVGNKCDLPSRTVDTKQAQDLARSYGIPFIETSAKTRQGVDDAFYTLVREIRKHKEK
Sequence of KRAS WT (P62937 whole entry): as the sequence (P62937 whole entry) above
Sequence of KRAS G12D (P01116-2 other isoform, or with tags, fused parts or gaps G12D): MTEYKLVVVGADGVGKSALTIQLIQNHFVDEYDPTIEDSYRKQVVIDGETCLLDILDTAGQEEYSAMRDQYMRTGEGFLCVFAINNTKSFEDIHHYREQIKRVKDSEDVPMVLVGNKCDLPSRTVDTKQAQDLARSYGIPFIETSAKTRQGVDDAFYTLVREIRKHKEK
Sequence of KRAS G12D (P62937 whole entry): as the sequence (P62937 whole entry) above
Sequence of K-Ras G12C (P01116-2 other isoform, or with tags, fused parts or gaps G12C): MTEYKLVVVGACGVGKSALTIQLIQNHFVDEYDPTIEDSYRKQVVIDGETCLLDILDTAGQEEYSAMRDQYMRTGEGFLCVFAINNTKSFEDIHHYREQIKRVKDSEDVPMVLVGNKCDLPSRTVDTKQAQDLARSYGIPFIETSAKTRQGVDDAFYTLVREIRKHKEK
Sequence of K-Ras G12C (P62937 whole entry): as the sequence (P62937 whole entry) above
Sequence of NRAS G12C (P01111 whole entry G12C): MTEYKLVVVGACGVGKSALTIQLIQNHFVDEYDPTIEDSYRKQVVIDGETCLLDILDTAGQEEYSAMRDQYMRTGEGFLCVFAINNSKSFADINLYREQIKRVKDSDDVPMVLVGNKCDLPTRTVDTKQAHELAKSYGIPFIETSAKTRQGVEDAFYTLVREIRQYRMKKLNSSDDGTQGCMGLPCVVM
Sequence of NRAS G12C (P62937 whole entry): as the sequence (P62937 whole entry) above
Sequence of KRAS G12V (P01116-2 other isoform, or with tags, fused parts or gaps G12V): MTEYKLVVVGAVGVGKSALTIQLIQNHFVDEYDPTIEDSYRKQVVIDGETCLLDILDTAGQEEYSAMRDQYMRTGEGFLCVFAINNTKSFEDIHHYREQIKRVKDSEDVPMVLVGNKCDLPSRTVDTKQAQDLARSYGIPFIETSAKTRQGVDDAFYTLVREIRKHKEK
Sequence of KRAS G12V (P62937 whole entry): as the sequence (P62937 whole entry) above

Row | Compound | IC50 [1] | IC50 [2] | IC50 [3] [µM] | IC50 [4] | IC50 [5] | IC50 [6] [µM] | IC50 [7] | IC50 [8] | IC50 [9] | EC50 ([10]; Homo sapiens, NCI-H358) [µM] | EC50 [10] [µM]
1 | CCn1c(-c2cccnc2[C@H](C)OC)c2c3cc(ccc31)-c1cc(O)cc(c1)C[C@H](NC(=O)[C@H](C(C)C)N(C)C(=O)[C@H]1CCN(C(=O)C#C[C@@H]3CCCN3C)C1)C(=O)N1CCC[C@H](N1)C(=O)OCC(C)(C)C2 (atropisomer, axis not shown) [Example A247] | 0.1 to 1 µM and 1 to 10 µM | 0.01 to 0.1 µM and < 0.01 µM | < 0.01 | 0.1 to 1 µM and 1 to 10 µM | 0.1 to 1 µM and 1 to 10 µM | 0.01 to 0.1 | 0.1 to 1 µM and 1 to 10 µM | 1 to 10 µM and 0.1 to 1 µM | < 0.01 µM | < 5 | 
2 | CCn1c(-c2cccnc2[C@H](C)OC)c2c3cc(ccc31)-c1cc(O)cc(c1)C[C@H](NC(=O)[C@H](C(C)C)N(C)C(=O)c1ccc(NC(=O)/C=C/CN(C)C)nc1)C(=O)N1CCC[C@H](N1)C(=O)OCC(C)(C)C2 (atropisomer, axis not shown) [Example A249] | 1 to 10 µM | 0.01 to 0.1 µM | 0.1 to 1 | 1 to 10 µM | 1 to 10 µM | 0.1 to 1 | 1 to 10 µM | > 10 µM | 0.1 to 1 µM | < 5 | 
3 | C=CC(=O)Nc1ccc(C(=O)N(C)[C@H](C(=O)N[C@H]2Cc3cc(O)cc(c3)-c3ccc4c(c3)c(c(-c3cccnc3[C@H](C)OC)n4CC)CC(C)(C)COC(=O)[C@@H]3CCCN(N3)C2=O)C(C)C)cn1 (atropisomer, axis not shown) [Example A250] | 0.1 to 1 µM and 1 to 10 µM | 0.01 to 0.1 µM and < 0.01 µM | 0.01 to 0.1 | 0.1 to 1 µM and 1 to 10 µM | 0.1 to 1 µM and > 10 µM | 0.01 to 0.1 | 0.1 to 1 µM and > 10 µM | 1 to 10 µM and > 10 µM | 0.01 to 0.1 µM and < 0.01 µM | < 5 | 
4 | CCn1c(-c2cccnc2[C@H](C)OC)c2c3cc(ccc31)-c1cc(O)cc(c1)C[C@H](NC(=O)[C@H](C(C)C)N(C)C(=O)c1ncc(NC(=O)/C=C/CN(C)C)s1)C(=O)N1CCC[C@H](N1)C(=O)OCC(C)(C)C2 (atropisomer, axis not shown) [Example A253] | 0.1 to 1 µM | < 0.01 µM | 0.01 to 0.1 | 1 to 10 µM | 0.1 to 1 µM | 0.1 to 1 | 0.1 to 1 µM | 1 to 10 µM | 0.1 to 1 µM | < 5 | 
5 | C=CC(=O)Nc1cnc(C(=O)N(C)[C@H](C(=O)N[C@H]2Cc3cc(O)cc(c3)-c3ccc4c(c3)c(c(-c3cccnc3[C@H](C)OC)n4CC)CC(C)(C)COC(=O)[C@@H]3CCCN(N3)C2=O)C(C)C)s1 (atropisomer, axis not shown) [Example A254] | 0.1 to 1 µM | 0.01 to 0.1 µM | 0.1 to 1 | 1 to 10 µM | 1 to 10 µM | 0.1 to 1 | 1 to 10 µM | 1 to 10 µM | 0.1 to 1 µM | < 5 | 
6 | C=CC(=O)Nc1cnc(C(=O)N(C)[C@H](C(=O)N[C@H]2Cc3cc(O)cc(c3)-c3ccc4c(c3)c(c(-c3cccnc3[C@H](C)OC)n4CC)CC(C)(C)COC(=O)[C@@H]3CCCN(N3)C2=O)C(C)C)n1C (atropisomer, axis not shown) [Example A255] | 0.1 to 1 µM | < 0.01 µM | < 0.01 | 0.01 to 0.1 µM | 0.1 to 1 µM | < 0.01 | 0.1 to 1 µM | 0.1 to 1 µM | < 0.01 µM |  | < 5
7 | C=CC(=O)N1CC(C(=O)N(C)[C@H](C(=O)N[C@H]2Cc3cc(O)cc(c3)-c3ccc4c(c3)c(c(-c3cccnc3[C@H](C)OC)n4CC)CC(C)(C)COC(=O)[C@@H]3CCCN(N3)C2=O)C(C)C)C1 (atropisomer, axis not shown) [Example A256] | 0.01 to 0.1 µM | 0.01 to 0.1 µM | < 0.01 | 0.01 to 0.1 µM | 0.1 to 1 µM | < 0.01 | 0.1 to 1 µM | 0.1 to 1 µM | 0.01 to 0.1 µM | < 5 | 
8 | CCn1c(-c2cccnc2[C@H](C)OC)c2c3cc(ccc31)-c1cc(O)cc(c1)C[C@H](NC(=O)[C@H](C(C)C)N(C)C(=O)C1CN(C(=O)/C=C/CN(C)C)C1)C(=O)N1CCC[C@H](N1)C(=O)OCC(C)(C)C2 (atropisomer, axis not shown) [Example A257] | 0.1 to 1 µM | 0.01 to 0.1 µM | < 0.01 | 0.1 to 1 µM | 0.1 to 1 µM | 0.01 to 0.1 | 0.1 to 1 µM | 0.1 to 1 µM | < 0.01 µM | < 5 | 
9 | C=CC(=O)Nc1csc(C(=O)N(C)[C@H](C(=O)N[C@H]2Cc3cc(O)cc(c3)-c3ccc4c(c3)c(c(-c3cccnc3[C@H](C)OC)n4CC)CC(C)(C)COC(=O)[C@@H]3CCCN(N3)C2=O)C(C)C)n1 (atropisomer, axis not shown) [Example A259] | 0.1 to 1 µM | 0.01 to 0.1 µM | 0.1 to 1 | 1 to 10 µM | 1 to 10 µM | 0.1 to 1 | 1 to 10 µM | > 10 µM | 0.1 to 1 µM | < 5 | 
10 | C=CC(=O)N1CCC(C(=O)N(C)[C@H](C(=O)N[C@H]2Cc3cc(O)cc(c3)-c3ccc4c(c3)c(c(-c3cccnc3[C@H](C)OC)n4CC)CC(C)(C)COC(=O)[C@@H]3CCCN(N3)C2=O)C(C)C)CC1 (atropisomer, axis not shown) [Example A260] | 0.01 to 0.1 µM | 0.01 to 0.1 µM | 0.01 to 0.1 | 0.01 to 0.1 µM | 0.01 to 0.1 µM | < 0.01 | 0.1 to 1 µM | 0.1 to 1 µM | 0.01 to 0.1 µM | < 5 | 
11 | CCn1c(-c2cccnc2[C@H](C)OC)c2c3cc(ccc31)-c1cc(O)cc(c1)C[C@H](NC(=O)[C@H](C(C)C)N(C)C(=O)N1CCN(C(=O)/C=C/CN(C)C)CC1)C(=O)N1CCC[C@H](N1)C(=O)OCC(C)(C)C2 (atropisomer, axis not shown) [Example A263] | 0.01 to 0.1 µM | 0.01 to 0.1 µM | 0.01 to 0.1 | 0.1 to 1 µM | 0.01 to 0.1 µM | 0.1 to 1 | 0.1 to 1 µM | 0.1 to 1 µM | 0.01 to 0.1 µM | < 5 | 
12 | CCn1c(-c2cccnc2[C@H](C)OC)c2c3cc(ccc31)-c1cc(O)cc(c1)C[C@H](NC(=O)[C@H](C(C)C)N(C)C(=O)N1CCCN(C(=O)/C=C/CN(C)C)CC1)C(=O)N1CCC[C@H](N1)C(=O)OCC(C)(C)C2 (atropisomer, axis not shown) [Example A264] | 0.01 to 0.1 µM | 0.01 to 0.1 µM | 0.01 to 0.1 | 0.01 to 0.1 µM | 0.01 to 0.1 µM | 0.01 to 0.1 | 0.01 to 0.1 µM | 0.01 to 0.1 µM | 0.01 to 0.1 µM | < 5 | 
13 | C=CC(=O)N1CCCN(C(=O)N(C)[C@H](C(=O)N[C@H]2Cc3cc(O)cc(c3)-c3ccc4c(c3)c(c(-c3cccnc3[C@H](C)OC)n4CC)CC(C)(C)COC(=O)[C@@H]3CCCN(N3)C2=O)C(C)C)CC1 (atropisomer, axis not shown) [Example A265] | 0.01 to 0.1 µM | 0.01 to 0.1 µM | 0.01 to 0.1 | 0.01 to 0.1 µM | 0.01 to 0.1 µM | 0.01 to 0.1 | 0.01 to 0.1 µM | 0.01 to 0.1 µM | 0.01 to 0.1 µM | < 5 | 
14 | CCn1c(-c2cccnc2[C@H](C)OC)c2c3cc(ccc31)-c1cc(O)cc(c1)C[C@H](NC(=O)[C@H](C(C)C)N1CCC3(CCN(C(=O)/C=C/CN(C)C)CC3)C1=O)C(=O)N1CCC[C@H](N1)C(=O)OCC(C)(C)C2 (atropisomer, axis not shown) [Example A267] | 0.1 to 1 µM | 0.01 to 0.1 µM | 0.01 to 0.1 | 0.1 to 1 µM | 0.01 to 0.1 µM | 0.01 to 0.1 | 0.1 to 1 µM | 1 to 10 µM | 0.01 to 0.1 µM | < 5 | 
15 | CCn1c(-c2cccnc2[C@H](C)OC)c2c3cc(ccc31)-c1cc(O)cc(c1)C[C@H](NC(=O)[C@H](C(C)C)N1CC[C@]3(CCN(C(=O)/C=C/CN(C)C)C3)C1=O)C(=O)N1CCC[C@H](N1)C(=O)OCC(C)(C)C2 (atropisomer, axis not shown) [Example A268] | 0.01 to 0.1 µM | 0.01 to 0.1 µM | < 0.01 | 0.01 to 0.1 µM | 0.01 to 0.1 µM | 0.01 to 0.1 | 0.01 to 0.1 µM | 0.01 to 0.1 µM | < 0.01 µM | < 5 | 
